{
  "source": "patent US20230079757A1",
  "about": "“METHODS AND MATERIALS FOR TREATING CANCER” (Mayo Foundation for Medical Education and Research, priority 2020, published 2023)",
  "molecules": {"B1": {"name": "FOXA1-F266L (other, UniProt P55317 1-472, looked up)", "chain": "MLGTVKMEGHETSDWNSYYADTQEAYSSVPVSNMNSGLGSMNSMNTYMTMNTMTTSGNMTPASFNMSYANPGLGAGLSPGAVAGMPGGSAGAMNSMTAAGVTAMGTALSPSGMGAMGAQQAASMNGLGPYAAAMNPCMSPMAYAPSNLGRSRAGGGGDAKTFKRSYPHAKPPYSYISLITMAIQQAPSKMLTLSEIYQWIMDLFPYYRQNQQRWQNSIRHSLSFNDCFVKVARSPDKPGKGSYWTLHPDSGNMFENGCYLRRQKRLKCEKQPGAGGGGGSGSGGSGAKGGPESRKDPSGASNPSADSPLHRGVHGKTGQLEGAPAPGPAASPQTLDHSGATATGGASELKTPASSTAPPISSGPGALASVPASHPAHGLAPHESQLHLKGDPHYSFNHPFSINNLMSSSEQQHKLDFKAYEQALQYSPYGSTLPASLPLGSASVTTRSPIEPSALEPAYYQGVYSRPVLNTS", "notes": "Ectopically expressed in 293T cells"}, "B2": {"name": "FOXA1-R261G (other, UniProt P55317 1-472, looked up)", "chain": "B1 chain with R261G, L266F", "notes": "as for B1"}, "B3": {"name": "FOXA1-H247Q (other, UniProt P55317 1-472, looked up)", "chain": "B1 chain with H247Q, L266F", "notes": "as for B1"}, "B4": {"name": "FOXA1 forkhead domain-containing region (FKCR, a.a. 141-294) (other, UniProt P55317 141-294, looked up)", "chain": "MAYAPSNLGRSRAGGGGDAKTFKRSYPHAKPPYSYISLITMAIQQAPSKMLTLSEIYQWIMDLFPYYRQNQQRWQNSIRHSLSFNDCFVKVARSPDKPGKGSYWTLHPDSGNMFENGCYLRRQKRFKCEKQPGAGGGGGSGSGGSGAKGGPESR", "notes": "Expressed in 293T cells, and the lysate was used for GST pulldown; also called FOXA1-FKCR"}},
  "key": {"MyC-CaP prostate tumors": {"tested_on": "MyC-CaP prostate tumors", "assay": "Growth of subcutaneous MyC-CaP prostate tumors in FVB male mice", "format": "in vivo", "details": "ASO 12.5 mg/kg intraperitoneal, n=6", "method": "(§1) FIGS. 19A-19B. FOXA1 ASOs sensitize prostate cancer to anti-PD-L1 immunotherapy in mice. (FIG. 19A) Western blot analysis of Foxal protein in MyC-CaP mouse prostate cancer cells at 48 hours after transfection with control ASO (Con ASO), Foxal gene specific ASO1, or Foxa1 gene specific ASO2. Erk2 was used as a loading control. (FIG. 19B) Growth of subcutaneous MyC-CaP prostate tumors in wild type intact FVB male mice. Mice were treated with anti-PD-L1 or non-specific IgG (10 mg/kg) in combination with control ASO (Con ASO) (12.5 mg/kg), Foxal ASO1 (12.5 mg/kg), or Foxa1 ASO2 (12.5 mg/kg) for the indicated number of days. Data shown as means ±s.d. (n=6). Statistical significance was determined by two-way ANOVA (* P<0.05; ** P <0.01; *** P <0.0001).\nMyC-CaP cells (3×10^6) were injected subcutaneously into the right flank of 6-week-old wild-type intact FVB male mice. When the average tumor volume reached approximately 100 mm^3, mice were randomized into groups subsequently treated with intraperitoneal injection of anti-PD-L1 or non-specific control IgG (10 mg/kg) in combination with control antisense oligonucleotides (12.5 mg/kg), Foxal ASO1 (12.5 mg/kg), or Foxal-ASO2 (12.5 mg/kg).\nThirty six 6-week-old wild-type intact FVB mice were purchased from Jackson Laboratories (Bar Harbor, Me.). Tumor volume was measured by digital caliper and calculated using a formula of length×width×width×0.5."}, "Foxa1 protein": {"tested_on": "Foxa1 protein", "assay": "Western blot analysis of Foxa1 protein in MyC-CaP cells after ASO transfection", "format": "cell-based", "details": "MyC-CaP murine prostate cancer cells, 48 hours after transfection, vs control ASO", "method": "as §1\nMyC-CaP murine prostate cancer cells were transfected with control ASO (Con ASO) or two Foxal-specific ASOs (Foxal ASO1 and Foxal ASO2).\nThe MyC-CaP murine prostate cancer cell line, originally derived from prostate tumors of Hi-Myc transgenic mice in FVB genetic background, was purchased from ATCC (Manassas, Va.).\nAntibodies used include anti-FOXA1 antibody (# ab23738, Abcam), anti-ERK2 (# sc-1647, Santa Cruz Biotechnology), anti-mouse PD-L1 mAb (clone 10B5), and InVivoMAb mouse IgG1 isotype control (clone MOPC-21) (# BE0083, Bio X Cell)."}, "TRAMP-C2 tumors [1]": {"tested_on": "TRAMP-C2 tumors", "assay": "CyTOF analysis of immune cells in TRAMP-C2 tumors after Poly(I:C)", "format": "in vivo, mice", "excerpt": "(§2) FIGS. 13A-13H. FOXA1 overexpression confers cancer immuno- and chemo-therapy resistance in mice and patients. FIG. 13A) Schematic diagram of generation and Poly(I:C) treatment of TRAMP-C2 prostate tumors in syngeneic mice. FIG. 13B) Growth of TRAMP-C2-Vector and TRAMP-C2-FOXA1ΔαH3 tumors treated with or without Poly(I:C). FIG. 13C) Tumor-free survival of syngeneic mice bearing TRAMP-C2-Vector or TRAMP-C2-FOXA1ΔαH3 tumors administrated with or without Poly(I:C). Statistical significance was determined by Log-rank (Mantel-Cox) test. FIGS. 13D and 13E) PhenoGraph-defined cellular distribution and clustering, as defined by tSNE1 and tSNE2, colored by cellular phenotypes in TRAMP-C2-Vector and TRAMP-C2-FOXA1ΔαH3 tumors from mice at 16 days post vehicle or Poly(I:C) treatment (FIG. 13D). Data were derived from all normalized viable single cells, subjected to the PhenoGraph algorithm. Data in the bar graphs (FIG. 13E) are means ±s.d, n=3. […] Statistical significance was determined by unpaired two-tailed Student's t tests in FIGS. 13E, 13F and 13G. FIG. 13H) Progression-free survival of patients with FOXA1-expression low or high urothelial carcinoma treated with anti-PD1 immunotherapy. Statistical significance was determined by Log-rank (Mantel-Cox) test.\n(§3) TRAMP-C2-Vector or TRAMP-C2-FOXA1ΔαH3 cells (3×10^6) were injected subcutaneously into the right flank of 8-week old male C57BL/6 on day 0. Tumors were measured twice per week with calipers and the volume calculated (length×width×width×0.5). Poly I:C (2.5 mg/kg, 100 pl) purchased from Sigma-Aldrich (# P1530) or vehicle (PBS, 100 pl) was administered by intratumoral injection twice per week (five doses in total) and tumors were measured twice per week until the tumor volume reached the maximum allowed size ([…]). For CyTOF and Immunofluorescence experiments, mice were euthanized at 48 hours post the last administration.\nSingle tumor cells were isolated using the Mouse Tumor Dissociation Kit (Miltenyi Biotec, # 130-096-730) following standard protocol. CyTOF staining panels are detailed in Table 3. […]"}, "TRAMP-C2 tumors [2]": {"tested_on": "TRAMP-C2 tumors", "assay": "Growth and survival of TRAMP-C2 prostate tumors in syngeneic C57BL/6 mice treated intratumorally with Poly(I:C)", "format": "in vivo", "excerpt": "as §2\nTo directly explore the role of FOXA1 in inhibiting cancer immune response, stable murine prostate cancer TRAMP-C2 cell lines overexpressing FOXA1-WT, cancer-associated mutant FOXA1-R261G and DNA binding-deficient mutant FOXA1ΔαH3, were established. […]\nas §3, with “For CyTOF and Immunofluorescence experiments, mice were euthanized at 48 hours post the last administration.” left out"}, "STAT2": {"biological_target": "T1, STAT2 (human, UniProt P52630 1-851)", "T1 construct": "also called endogenous STAT2", "T1 sequence (P52630 whole entry)": "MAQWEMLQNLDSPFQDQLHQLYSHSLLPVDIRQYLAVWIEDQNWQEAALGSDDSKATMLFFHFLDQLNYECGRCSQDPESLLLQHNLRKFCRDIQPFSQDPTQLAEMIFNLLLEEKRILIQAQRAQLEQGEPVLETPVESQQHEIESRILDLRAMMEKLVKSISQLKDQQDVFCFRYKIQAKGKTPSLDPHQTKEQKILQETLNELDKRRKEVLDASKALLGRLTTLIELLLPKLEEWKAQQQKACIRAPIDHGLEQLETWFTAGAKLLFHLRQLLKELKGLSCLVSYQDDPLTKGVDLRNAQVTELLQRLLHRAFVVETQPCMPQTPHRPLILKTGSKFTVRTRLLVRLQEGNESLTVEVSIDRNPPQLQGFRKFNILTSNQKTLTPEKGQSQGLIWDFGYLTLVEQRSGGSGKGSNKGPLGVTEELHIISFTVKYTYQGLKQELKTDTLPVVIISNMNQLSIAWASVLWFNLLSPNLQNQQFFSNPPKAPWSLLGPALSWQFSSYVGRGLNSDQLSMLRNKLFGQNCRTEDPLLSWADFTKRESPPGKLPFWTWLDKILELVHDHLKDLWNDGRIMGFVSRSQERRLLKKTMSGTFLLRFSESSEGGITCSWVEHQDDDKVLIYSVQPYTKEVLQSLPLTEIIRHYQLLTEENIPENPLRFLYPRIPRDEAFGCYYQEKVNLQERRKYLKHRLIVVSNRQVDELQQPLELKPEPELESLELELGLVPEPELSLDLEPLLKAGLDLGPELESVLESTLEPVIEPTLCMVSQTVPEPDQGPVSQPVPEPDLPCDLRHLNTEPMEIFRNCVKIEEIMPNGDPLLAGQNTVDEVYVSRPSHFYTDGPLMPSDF", "assay": "co-IP of ectopically expressed proteins in 293T cells (FIG. 11E)", "method": "(§4) For extraction of nuclear and cytoplasmic proteins from cells, NE-PER Nuclear and Cytoplasmic Extraction Kit (# 78835, Thermo Fisher Scientific) was used according to the manufacturer's instructions. IP buffer (50 mM Tris-HCl pH7.5, 150 mM NaCl, 1% NP40, 0.5% Sodium Deoxycholate) was used to extract whole cell lysate. P rotein A/G agarose (# 20421, Thermo Fisher Scientific) was used for immunoprecipitation of FOXA1 (# ab23738, Abcam) and Flag-tag (dilution 1:1000; # F1804, Sigma-Aldrich). Monoclonal anti-HA agarose (# A2095, Sigma-Aldrich) was used for HA-tag Co-IP. For glutathione-S-transferase (GST) pulldown assay, GST-tagged STAT2 fragment expressed at E. coli was purified by Glutathione Sepharose 4B beads (# 84-239, Genesee Scientific) and incubated with lysate from 293T cells expressing interested proteins, and GST pulldown assays were performed. For protein co-IP, samples eluted in IP butter were incubated with agarose beads and antibodies overnight at 4° C. and washed with 6 times with IP buffer in the following day. Samples were boiled for 10 minutes in 50 μl sample buffer (2% SDS, 10% glycerol, 10% β-mercaptoethanol, bromophenol blue and Tris-HCl, pH 6.8) and subjected to Western blotting."}, "[3]": {"biological_target": "T2, GST-tagged STAT2 DNA binding domain (a.a. 312-486) (UniProt P52630 312-486)", "T2 construct": "range 312-486; also called STAT2-DBD; STAT2 DBD; not shown: GST tag", "T2 sequence (looked up)": "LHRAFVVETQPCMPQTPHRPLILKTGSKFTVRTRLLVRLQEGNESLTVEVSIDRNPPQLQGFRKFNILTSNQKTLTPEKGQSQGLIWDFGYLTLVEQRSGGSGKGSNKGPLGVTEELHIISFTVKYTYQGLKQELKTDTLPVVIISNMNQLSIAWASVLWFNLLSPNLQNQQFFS", "assay": "mutagenesis and GST pull down (FIG. 9E)", "method": "as §4"}},
  "note": "Substitutions are numbered along the chain they refer to. l = locked nucleic acid (LNA); d = 2'-deoxy (DNA)",
  "data": [
    {"molecule": "Foxa1 ASO2: LNA/PS antisense oligo +T*+G*+G*A*T*G*G*C*C*A*T*C*G*+T*+G*+A (SEQ ID NO: 43) (antisense TGGATGGCCATCGTGA; sugars from the 5' end l3 d10 l3, all phosphorothioate, methylation of C not given here)", "values": [
      {"measurement": "tumor growth", "setting": "MyC-CaP prostate tumors", "value": "significantly inhibited tumor growth"},
      {"measurement": "Foxa1 protein knockdown", "setting": "Foxa1 protein", "value": "substantially knocked down"}
    ]},
    {"molecule": "Poly(I:C)", "values": [
      {"measurement": "TILs, especially CD8+ T and NK cells", "setting": "TRAMP-C2 tumors [1]; TRAMP-C2-FOXA1ΔαH3 tumors", "value": "such effect was diminished"},
      {"measurement": "CD11b+Gr1+ myeloid-derived suppressor cells (MDSCs)", "setting": "TRAMP-C2 tumors [1]; TRAMP-C2-Vector tumors", "value": "reduced"},
      {"measurement": "TILs, especially CD8+ T and NK cells", "setting": "TRAMP-C2 tumors [1]; TRAMP-C2-Vector tumors", "value": "discernibly increased"},
      {"measurement": "tumor growth-inhibitory effect", "setting": "TRAMP-C2 tumors [2]; TRAMP-C2-FOXA1ΔαH3 tumors, Poly I:C 2.5 mg/kg intratumoral", "value": "largely diminished"},
      {"measurement": "overall mouse survival", "setting": "TRAMP-C2 tumors [2]; TRAMP-C2-Vector tumors, Poly I:C 2.5 mg/kg intratumoral", "value": "prolonged"},
      {"measurement": "tumor growth", "setting": "TRAMP-C2 tumors [2]; TRAMP-C2-Vector tumors, Poly I:C 2.5 mg/kg intratumoral twice per week, five doses", "value": "decreased the growth"}
    ]},
    {"molecule": "Foxa1 ASO1: LNA/PS antisense oligo +G*+G*+T*A*G*C*G*C*C*A*T*A*A*G*G*A*G*+A*+G*+T (SEQ ID NO: 42) (antisense GGTAGCGCCATAAGGAGAGT; sugars from the 5' end l3 d14 l3, all phosphorothioate, methylation of C not given here)", "values": [
      {"measurement": "tumor growth", "setting": "MyC-CaP prostate tumors", "value": "significantly inhibited tumor growth"},
      {"measurement": "Foxa1 protein knockdown", "setting": "Foxa1 protein", "value": "substantially knocked down"}
    ]},
    {"molecule": "B1", "values": [
      {"measurement": "binding result", "setting": "STAT2", "value": "binds"}
    ]},
    {"molecule": "B2", "values": [
      {"measurement": "binding result", "setting": "STAT2", "value": "binds"}
    ]},
    {"molecule": "B3", "values": [
      {"measurement": "binding result", "setting": "STAT2", "value": "binds"}
    ]},
    {"molecule": "B4", "values": [
      {"measurement": "binding result", "setting": "[3]", "value": "binds"}
    ]}
  ]
}
